Source: patent publication US12503455B2, “Nucleic acid-binding photoprobes and uses thereof” (Arrakis Therapeutics, Inc., priority 2017, dated 2025)

Assays:
Assay type in all cases: binding
Aptamer 21 [1] = assay: Reverse transcriptase pausing (drop-off) gel assay of photo-crosslinking to Aptamer 21
Protocol: A solution of RNA at 2 to 5 μM in nuclease-free water was heated to 95° C. for 3 min and then cooled on ice for 2 min. This solution was diluted with ½ volume of 3×RNA folding buffer (60 mM TrisHCl pH 8, 300 mM KCl, 9 mM MgCl2) and incubated at 37° C. for 20 min. Folding was carried out immediately before use of the RNA in each experiment. In cases where a mixture of RNA molecules was used in vitro the RNAs were folded separately and then combined prior to the probing experiment.
Folded RNA (1 μM) was incubated with the photoaffinity probe (10 μM) in total 25 μL of buffer (20 mM TrisHCl pH 8, 100 mM KCl, 3 mM MgCl2) with 2.5% DMSO for 30 min at 37° C. to allow binding to come to equilibrium. The sample was then irradiated with long wave UV light (˜365 nm) for 30 min in a UV crosslinker (Fisher Scientific).
A 3.75 μL aliquot of 10 μM reverse transcription primer was added to the cross-linked RNA sample, which was then incubated for 5 min at 65° C. and then cooled on ice. The sample was then diluted to a final volume of 60 μL and final buffer concentration of 1× Protoscript-II buffer (New England Biolabs), 0.5 mM dNTPs, 10 mM DTT, 0.4 U/μL RNase Inhibitor (New England Biolabs), and 10 U/μL Protoscript-II (New England Biolabs). The reaction was incubated at 45° C. for 2 h, 65° C. for 20 min, and then 4° C.
The RNA was hydrolyzed by the addition of 4.8 μL of 2.5 M NaOH and heating at 95° C. for 5 min. The reaction was quenched by the addition of 0.9 μL of acetic acid. The cDNA was precipitated by the addition of 6.6 μL of 3 M sodium acetate pH 5 and 181 μL ethanol, cooling to −80° C. for 1 h, and then centrifuging at 20,500×g at 4° C. for 30 min. The cDNA pellet was washed twice with 500 μL of 70% ethanol and then air dried for 5 min.
The cDNA pellet was resuspended in 12 μL of 1×TBE-urea sample loading buffer (Bio-Rad) and heated to 95° C. for 5 min. The sample was then run on a pre-cast 8.6×6.7 cm TBE-urea 10% PAGE gel (Bio-Rad) at 120 V until the lower bromophenol blue dye reached the bottom of the gel. The gel was stained with 1×SYBR-gold (Invitrogen) in 1×TBE buffer at room temperature for 20 min covered from light. The gel fluorescence was imaged on an Azure c600 instrument.

Aptamer 21 [2] = assay: LC-MS analysis of cross-linked RNA
Protocol: Folded RNA (1.33 μM) was incubated with or without the photoaffinity probe (20 μM) in total 100 μL of buffer (20 mM TrisHCl pH 8, 100 mM KCl, 3 mM MgCl2) with 2% DMSO for 30 min at 37° C. to allow binding to come to equilibrium. The sample was then irradiated with long wave UV light (˜365 nm) for 30 min in a UV crosslinker (Fisher Scientific).
The RNA was then precipitated by adding 10 μL of 3 M sodium acetate pH 5 and 275 μL ethanol, cooling to −80° C. for 1 h, and then centrifuging at 20,500×g at 4° C. for 30 min. The RNA pellet was washed with 500 μL of 70% ethanol, air dried for 5 min, and then resuspended in 120 μL of water.
50 μL of RNA sample was injected onto Clarity 2.6 μm Oligo X-T column (50*2.1 mm, 60° C.), and the gradient and flowrate were as follows: 95% A/5% B to 75% A/25% B over 5 min, flowrate: 400 μL/min; 75% A/25% B to 30% A/70% B over 1 min, flowrate: 400 μL/min; 100% D over 1 min, flowrate: 500 μL/min; 95% A/5% B over 2 min, flowrate: 500 μL/min (A: 1% HFIPA (hexafluoroisopropyl alcohol), 0.1% DIEA (diisopropylethylamine), 1 μM EDTA (ethylenediamine tetraacetic acid) in H2O; B: 0.075% HFIPA, 0.0375% DIEA, 1 μM EDTA in 65/35 MeCN/H2O; D: 40/40/20% MeOH/MeCN/H2O); The LCMS instrument was a Thermo Finnigan LTQ, and ProMass deconvolution software coupled with Xcaliber were used for all data processing.

Aptamer 21-E = assay: Photo-crosslinking of ARK-547 with negative control Aptamer 21-E
Protocol: A 9.5 μL sample of folded RNA (2.6 μM) in buffer (20 mM TrisHCl pH 8, 100 mM KCl, 3 mM MgCl2) was added to a 0.5 μL aliquot of 1 mM ARK-547 in DMSO. The reaction was incubated for 10 min at 37° C., irradiated with long wave UV light (˜365 nm) for 30 min in a UV crosslinker (Fisher Scientific), and then kept on ice.
The samples of cross-linked RNA were diluted to a final volume of 20 μL and final reaction conditions of 1×T4 RNA ligase buffer (New England Biolabs), 5 U/μL T4 RNA ligase 2, truncated KQ (New England Biolabs), 16.5% PEG-8000, and 0.5 μM universal miRNA cloning linker (New England Biolabs). The reaction was incubated in a thermal cycler for 2.5 h cycling between 5 min at 16° C. and 3 min at 25° C. The RNA was then purified using Agencourt AMPure XP beads (Beckman Coulter) using the standard protocol from the manufacturer. […]
To remove excess primer, the sample was mixed with 4.5 μL of ExoSAP-IT, incubated at 37° C. for 15 min, and then quenched with 1 μL of 0.5 M EDTA pH 8. […] The concentration was determined by absorbance at 260 nm. […]
The concentrations of different PCR products were measured using the Denovix dsDNA fluorescence quantitation kit (Denovix) and multiplexed at equal concentrations with a 20% PhiX spike-in. Sequencing was performed on an Illumina MiSeq with 150 bp paired-end reads using the standard manufacturer protocol.

Aptamer 21 [3] = assay: Capture of Aptamer 21 with click-biotinylated probes; settings: Aptamer 21 or Aptamer 21-E
Protocol: A 50 μL sample of 1 μM folded Aptamer 21 or Aptamer 21-E solution in folding buffer (20 mM TrisHCl pH 8, 100 mM KCl, 3 mM MgCl2) was added to a 0.5 μL aliquot of 0.5 mM ARK-729, ARK-2058, ARK-816, or ARK-2059 in DMSO or a DMSO-only control. The solution was incubated at 37° C. for 1 h and then irradiated with long wave UV light (˜365 nm) for 30 min in a UV crosslinker (Fisher Scientific). To this solution was added 0.5 μL of 10 mM DBCO-biotin (Click Chemistry Tools, cat. #A105) and 2 μL of 0.5 M EDTA pH 8 and then the solution was incubated at 65° C. for 2 h. The RNA was ethanol precipitated by adding 35 μL of water, 2 uL of 5 mg/mL glycogen, 10 μL 3 M NaOAc pH 5, and 250 μL ethanol, incubating at −80° C. for 1 h, centrifuging at 20000×g for 30 min, washing the pellet twice with 500 μL of 70% ethanol, and then air drying the pellet.
The RNA pellet was redissolved in 50 μL of 1× bind/wash buffer (20 mM TrisHCl pH 7, 100 mM KCl, 0.1% Tween-20). A 50 μL aliquot of MyOne Streptavidin C1 Dynabead slurry (Thermo) was captured on a magnet, washed twice with 50 μL of 1× bind/wash buffer, and then resuspended in 50 μL of the crosslinked RNA sample. The bead suspension was rotated at room temperature for 30 min and then washed twice with 100 μL of 1× bind/wash solution. […]

Compound | cross-linking with Apt21 RNA (RT pausing) (Aptamer 21 [1]; 1 uM RNA, 10 uM probe (9 uM PreQ1 probe), UV ~360 nm) | shortened sequences produced in PEARL-seq reverse transcriptase pausing gel assay (Aptamer 21 [1]; FIG. 52) | covalent modification of the RNA by LC-MS (Aptamer 21 [2]) [%] | binding to negative control Aptamer 21-E (Aptamer 21-E) | photoadduct with Aptamer 21-E (Aptamer 21-E) | RT pausing peaks after click-biotinylation and avidin bead enrichment (Aptamer 21 [3])
COC(=O)C1=C(COCc2cn(CCOCCOCCNC(=O)CCC3(C)N=N3)nn2)NC(c2ccncc2)=NC1c1ccc(F)cc1Cl (stereo not drawn) [ARK-547] | specific and UV-dependent cross-linking | shortened sequences of particular lengths | 5 | does not bind | no photoadduct | –
COC(=O)C1=C(COCc2cn(CCOCCOCCNC(=O)c3cc(CN=[N+]=[N-])cc(N=[N+]=[N-])c3)nn2)NC(c2ccncc2)=NC1c1ccc(F)cc1Cl (stereo not drawn) [ARK-729] | – | – | – | – | – | RT pausing peaks specific to Aptamer 21
